Measured values taken from patent US20220267857A1, “METHOD FOR DETERMINING THE RESPONSE TO TREATMENT OF A PATIENT AFFECTED BY NON-SMALL CELL LUNG CARCINOMA (NSCLC)” (FUNDACIÓN PARA LA INVESTIGACIÓN BIOMÉDIKCA DEL HOSPITAL …, priority 2019, published 2022).

Tests used:
Experiment in all cases: Viability curves to CDDP, resistant vs sensitive subtype
Type in all cases: cell-based
[1] = system: H23S/H23R lung cancer cell lines; settings: IC50 of resistant cell line/IC50 of sensitive cell line, p<0.001
Method: (§1) FIG. 1. Viability curves to CDDP and CBDCA. The curves show CDDP resistance of cells (A) H23R, (B) H460R, (C) A2780R and (D) 41MR; and to CBDCA of cells (E) H23R-CBDCA and (F) A2780R-CBDCA. The data was normalized with respect to the untreated control, which was established as 100%. IC50 is the concentration that induces the death of 50% of the cell population. The resistance index (IR) is calculated as IC50 of the resistant cell line/IC50 of the sensitive cell line. P<0.001 was considered a significant change in drug sensitivity (Student's t test).
(§2) Cell Culture Lung and ovarian cancer cell lines H23, H460, H1299, H727, A2780 and OVCAR3 were purchased from the ATCC (Manassas, Va.) or ECACC (Sigma-Aldrich, Spain). All of them were maintained in RPMI supplemented with 10% exosome-depleted FBS, except for OVCAR3 which was cultured in RPMI with 20% exosome-depleted FBS. FBS was depleted of bovine exosomes by ultracentrifugation at 100,000×g for 16 h at 4° C. The CDDP-resistant variants H23R, H460R, A2780R and OVCAR3R, and the carboplatin-resistant variants H23R-CBDCA and A2780R-CBDCA were established by exposing cells to increasing doses of each platinum-based drug as described. The CDDP sensitive and resistant ovarian cancer cell lines 41M and 41MR were provided by Dr. Kelland (UK) and maintained in DMEM supplemented with 10% exosome-depleted FBS.
(§3) To determine whether cisplatin-resistant cells transmit their resistance through exosomes we used matched CDDP-sensitive/resistant lung cancer and ovarian cell lines H23S/H23R, H460S/H460R, A2780S/A2780R and 41M/41MR and, that we established previously (Ibanez de Caceres, I. et al. IGFBP-3 hypermethylation-derived deficiency mediates cisplatin resistance in non-small-cell lung cancer. Oncogene 29, 1681-1690 (2010); Vera, O. et al. DNA Methylation of miR-7 is a Mechanism Involved in Platinum Response through MAFG Overexpression in Cancer Cells. Theranostics 7, 4118-4134 (2017)). […] We then isolated exosomes from resistant subtypes H23R, H460R, 41MR and A2780R and confirmed their proper size (around 100 nm) using electron microscopy and NanoSight analysis (FIGS. 2A and B) Once we have confirmed that our samples were successfully enriched in exosomes, we wanted to assess if exosomes from cisplatin-resistant cells could alter the drug response of sensitive cells. For that purpose, firstly, we examined whether exosomes isolated from CDDP resistant subtypes were taken up by sensitive parental cells, we labelled exosomes with PKH26 and exposed them to sensitive cells. The analysis using flow cytometry confirmed the uptake of resistant exosomes in more than 77% of sensitive cells H23S, 41M and A2780S compared with PBS control (FIG. 3).

[2] = system: H460S/H460R lung cancer cell lines; settings: IC50 of resistant cell line/IC50 of sensitive cell line, p<0.001
Method: as §1, §2, §3

[3] = system: A2780S/A2780R ovarian cancer cell lines; settings: IC50 of resistant cell line/IC50 of sensitive cell line, p<0.001
Method: as §1, §2, §3

[4] = system: 41M/41MR ovarian cancer cell lines; settings: IC50 of resistant cell line/IC50 of sensitive cell line; 41MR vs 41M; p<0.001
Method: as §1, §2, §3

SMILES: N.N.[Cl][Pt][Cl] [cisplatin]
- Resistant-Index (RI) [1]: 2.77
- Resistant-Index (RI) [2]: 2.49
- Resistant-Index (RI) [3]: 2.11
- Resistant-Index (RI) [4]: 4.26
